Assay results reported in the NIST ThermoML archive (doi:10.1021/je034023f).

Test: Henry's Law constant (molality scale); of the first substance listed, at infinite dilution; mn = molality of the nth substance listed, in mol/kg
Conditions: Liquid, m1 = 0

O=C=O [carbon dioxide] + CCCCn1cc[n+](C)c1.F[P-](F)(F)(F)(F)F
Conditions | Henry's Law constant [kPa·kg/mol]
293.15 K | 1200
313.15 K | 1890
333.15 K | 2700
353.15 K | 3570
373.15 K | 4470
393.15 K | 5490
